Converted amounts (≈) assume the structure as drawn. “And” between values parts separate entries of the source, which are not always exact repeats. Equal entries are not always repeated.
Columns and labels:
P. aeruginosa = assay: MIC in CAMHB, 96-well plate (10^5 to 10^2 CFU/mL in 24 hours); assay type: cell-based; settings: Pseudomonas aeruginosa
Description: (§1) To determine the MIC of polyamine compounds, the protocol described herein was used.
(§2) In brief, a 0.5 McFarland of each bacterial isolate was made. A 0.5 McFarland is a measure of turbidity in a liquid sample that contains approximately 1×10̂^8 CFU/mL. The 0.5 McFarland standard was diluted in cation adjusted Mueller Hinton Broth (CAMHB), and […], of broth were added to a well of a 96-well plate. In addition, 50 μL of CAMHB that contained a desired concentration of antimicrobial were also added to the well for a final volume of 100 and a final concentration of approximately 5×10^4 CFU/well (which equated to approximately 5×10^5 CFU/mL). Each well contained a desired amount of polyamine compound in order to experimentally determine the MIC. Each 96-well plate was incubated at 37° C. for 24 hours. The contents of each well were plated on tryptic soy agar (TSA). TSA plates were incubated for 37° C. for 24 hours after which the number of CFU were counted and used to calculate the CFU/mL that remained after exposure to varying concentrations of compound. This procedure was repeated n=8 times for each concentration of antimicrobial.

A. baumannii = assay: as above; assay type: cell-based, Acinetobacter baumannii
Description: as §1, §2
A 0.5 McFarland of A. baumannii is made. A 0.5 McFarland is a measure of turbidity in a liquid sample that contains approximately 7.5×10^7 CFU/mL. The 0.5 McFarland standard is diluted in CAMHB and 50 μL of broth is added to a well of a 96-well plate. In addition, 50 μL of CAMHB that contains a desired concentration of antimicrobial is added to the well for a final volume of 100 μL and a final concentration of approximately 5×10^4 CFU/well (which equates to approximately 5×10^5 CFU/mL). Each well contains a desired amount of CZ compound in order to experimentally determine the MIC. Each 96-well plate is incubated at 37° C. for 24 hours. The contents of each well is plated on tryptic soy agar (TSA). TSA plates is incubated at 37° C. for 24 hours after which the number of CFUs is counted and used to calculate the CFU/mL that remain after exposure to varying concentrations of compound. This procedure is repeated n=8 times for each concentration of antimicrobial. […]

A. baumannii biofilm [1] = assay: EBEC, high number biofilms on PEEK membranes (10^9 to 10^2 CFU/PEEK membrane in 24 hours); assay type: cell-based, Acinetobacter baumannii; settings: for EBEC, A. baumannii: Table 4; for EBEC relative to MIC against A. baumannii: EBEC greater than the MIC by this factor
Description: In addition to determining the MIC and the MBEC of polyamine compounds against planktonic bacteria and low number biofilms, our group wanted to determine the efficacy of polyamine compounds against high number biofilms. To do so, biofilms were grown on the surface of polyetheretherketone (PEEK) membranes using a membrane biofilm reactor. This reactor is similar to the CDC biofilm reactor, but rather than growing biofilms on coupon surfaces, the reactor was modified to hold PEEK membranes. In short, to grow biofilms within this system, 500 mL of brain heart infusion (BHI) broth were inoculated with 1 mL of a 0.5 McFarland. The reactor was placed on a hot plate set at 34° C. and the bacteria were grown under batch conditions for 24 hours. Following this protocol, biofilms typically grow to 10^9 CFU/PEEK membrane. […] A solution of 10% BHI was then flowed through the reactor at a rate of 6.94 mL/min for an additional 24 hours. PEEK membranes were then removed and placed into 2 mL of CAMHB that contained a desired concentration of polyamine compound or antibiotic. The EBEC was defined as the concentration of antimicrobial required to reduce a biofilm from approximately 10^9 CFU/PEEK membrane to approximately 10^2 CFU/PEEK membrane in a 24-hour period.
In addition to determining the MIC and the MBEC of compounds against planktonic bacteria and low number biofilms, the efficacy of the compounds of the invention against high number biofilms is determined. To do so, biofilms are grown on the surface of PEEK membranes using a membrane biofilm reactor (Williams, D. L., Haymond, B. S. & Bloebaum, R. D. Use of delrin plastic in a modified CDC biofilm reactor. Res J Microbiol 6, 425-429 (2011); Williams, D. L., Woodbury, K. L., Haymond, B. S., Parker, A. E. & Bloebaum, R. D. A modified CDC biofilm reactor to produce mature biofilms on the surface of PEEK membranes for an in vivo animal model application. Curr Microbiol 62, 1657-1663 (2011); Williams, D. L. et al., In Vivo Efficacy of a Silicone—Cationic Steroid Antimicrobial Coating to Prevent Implant-Related Infection. Biomaterials 33, 8641-8656 (2012); Williams, D. L. et al., Experimental model of biofilm implant-related osteomyelitis to test combination biomaterials using biofilms as initial inocula. J Biomed Mat Res A 100, 1888-1900 (2012)). This reactor is similar to the CDC biofilm reactor, but rather than growing biofilms on coupon surfaces, the reactor was modified to hold PEEK membranes. In short, to grow biofilms within this system, 500 mL of brain heart infusion (BHI) broth is inoculated with 1 mL of a 0.5 McFarland. The reactor is placed on a hot plate set at 34° C. and the bacteria grown under batch conditions for 24 hours. A solution of 10% BHI will then be flowed through the reactor at a rate of 6.94 mL/min for an additional 24 hours. Following this protocol, biofilms typically grow to 10^9 CFU/PEEK membrane. PEEK membranes is removed and placed into 2 mL of CAMHB that contain a desired concentration of the test compound. The EBEC is defined as the concentration of antimicrobial required to reduce a biofilm from approximately 10^9 CFU/PEEK membrane to approximately 10^2 CFU/PEEK membrane in a 24-hour period.
EBEC data were collected to determine the efficacy of CZ-52, CZ-58 and traditional antibiotics against high number biofilms containing approximately 10^9 CFU grown on the surface of a polyetheretherketone (PEEK) membrane. […] In contrast, at 250 μg/mL CZ-52 was able to reduce MRSA biofilms by greater than 7 log10 units in a 24-hour period. Although the MIC of CZ-58 was lower against MRSA compared to A. baumannii, CZ-58 had greater activity against biofilms of A. baumannii than against MRSA biofilms in the EBEC assay. […] Although the MIC of CZ-58 was “high” compared to MICs of traditional antibiotics, the efficacy against biofilms was promising.

A. baumannii biofilm [2] = assay: MBEC, MBEC Inoculation Tray by Innovotech (to 10^2 CFU/peg in 24 hours); assay type: cell-based, Acinetobacter baumannii; settings: Table 3B titled MICs, group head missing, values match MBEC; for MIC: Acinetobacter baumannii
[3] = Table 3A, first P. aeruginosa column
[4] = Acinetobacter baumannii, Table 3A
[5] = Acinetobacter baumannii, Table 4

Compound	MIC (P. aeruginosa; [3])	MIC (P. aeruginosa; Table 5, class symbols)	MIC (A. baumannii; [4])	MIC (A. baumannii; [5])	EBEC, A. baumannii (A. baumannii biofilm [1])	MIC (A. baumannii biofilm [2])	EBEC relative to MIC against A. baumannii (A. baumannii biofilm [1])	activity against A. baumannii biofilms relative to MRSA biofilms (A. baumannii biofilm [1]; greater activity against A. baumannii biofilms)	MIC, A. baumannii (A. baumannii; Table 3A)	MIC (A. baumannii; Table 4)	MIC, A. baumannii (A. baumannii; Table 4)	MIC, A. baumannii (A. baumannii biofilm [2])
NCCCNCCCNCc1cccc(CNCCCNCCCN)c1 [CZ-25]	50 µg/mL	> 100 µM	150 µg/mL	150 µg/mL and 411 µM	~7,500 μg/mL	450 µg/mL (≈ 1230 µM)						
NCCCNCCCNCc1cc(CNCCCNCCCN)cc(-c2ccccc2)c1 [CZ-58]		< 50 µM		30 µg/mL and 68 µM	400 μg/mL and 908 μM		~13 ×	10 fold				
Polymyxin B sulfate [reference compound]					1,000 μg/mL and 722 μM		1,000 ×		2 µg/mL	0.7 µM	1 µg/mL	50 µg/mL
NCCCNCCCNCc1cc(CNCCCNCCCN)cc(CNCCCNCCCN)c1 [CZ-52]	17 µg/mL		~25 µg/mL	400 µg/mL and 800 µM	~7,000 μg/mL and ~14,000 μM	300 µg/mL (≈ 591 µM)						
